Laboratory results taken from ChEMBL document CHEMBL1125915, “Novel alkaloids from the tropical plant Ancistrocladus abbreviatus inhibit cell killing by HIV-1 and HIV-2” (J Med Chem, 1991).

Assays:
CEM-SS [1] = test: Compound tested for inhibition of P24 (P24 antigen) in HIV-infected CEM-SS cells; Inhibited; format: functional, cell-based; conditions: Homo sapiens
[2] = molecular target: Human immunodeficiency virus type 1 reverse transcriptase (Human immunodeficiency virus 1) (UniProt Q72547); test: Compound tested for inhibition of RT (reverse transcriptase) in HIV-infected CEM-SS cells; Inhibited; format: cell-based
CEM-SS [3] = test: Compound tested for inhibition of syncytium-forming units (SFU) in HIV-infected CEM-SS cells; Inhibited; format: functional, cell-based; conditions: Homo sapiens
CEM-SS [4] = test: Compound tested for inhibition of the cytopathic effects of HIV-1 upon CEM-SShuman lymphoblastoid target cells in vitro; format: functional, cell-based; conditions: Homo sapiens
CEM-SS [5] = test: Compound tested for cytotoxic effect on uninfected CEM-SS human lymphoblastoid target cell; format: functional, cell-based

inhibition [2]	EC50 (CEM-SS [4]) [µM]	SMILES	inhibition (CEM-SS [1])	inhibition (CEM-SS [3])	IC50 (CEM-SS [5]) [µM]
Inhibited	–	COc1cc(C)cc2c(-c3c(O)cc(O)c4c3C[C@H](C)N[C@H]4C)cc(-c3cc(-c4c(O)cc(O)c5c4C[C@H](C)N[C@H]5C)c4cc(C)cc(OC)c4c3O)c(O)c12 (stereo in doubt; 2)	Inhibited	Inhibited	–
–	20	COc1cc(C)cc2c(-c3c(O)cc(O)c4c3C[C@H](C)N[C@H]4C)cc(-c3cc(-c4c(O)cc(O)c5c4C[C@H](C)N[C@H]5C)c4cc(C)cc(OC)c4c3O)c(O)c12 (stereo in doubt; 1) [listing 1 of 2 here]	–	–	200
Inhibited	–	COc1cc(C)cc2c(-c3c(O)cc(O)c4c3C[C@H](C)N[C@H]4C)cc(-c3cc(-c4c(O)cc(O)c5c4C[C@H](C)N[C@H]5C)c4cc(C)cc(OC)c4c3O)c(O)c12 (stereo in doubt; 1) [listing 2 of 2 here]	Inhibited	Inhibited	–
